“Also recorded” adds a separate entry of the source. Like-named read-outs stand apart in the source and are kept apart here.
Legend:
[1] = tested on: N NTD oligomerization induced by 48-mer DNA; assay type: biochemical; details: for Oligomer Size (hydrodynamic diameter Dh of DNA-NTD complex) / Oligomer Inhibition/Enhancement: NTD (60 µM) monomer, [compound] = 37.5 µM, [48-mer] = 29.4 µM; for Oligomer Size (hydrodynamic diameter Dh of DNA-NTD complex): 20 °C, without ligand 15.7 ± 0.7
SARS-CoV-2 [2] = assay: microbe, parasite or virus in culture; assay type: cell-based; details: for effect on viral replication: infected Vero E6 cells, MOI 0.01, 48 and 72 hpi
SARS-CoV-2 in nasal HAE = details: 90 µM or 300 µM, postinfection treatment, 48 hpi
COX = details: cited from earlier work; for COX Inhibition: which COX is inhibited, ref 11 (given for naproxen A and C0)
Influenza A virus = details: cited from earlier work
viral 3C-like protease = details: cited from earlier work
[3] = target: SARS-CoV-2 N-NTD (monomer) with labeled 10-mer RNA (Severe acute respiratory syndrome coronavirus 2, UniProt P0DTC9); assay: biochemical; details: read-out: N Binding, Fluo Anisotropy (KD, displacement of RNA)
in vitro = details: African green monkey
[4] = Cytotoxicity in Vero E6 cells; details: African green monkey
wild type N-NTD = tested on: wild type N-NTD; parameters: method as in PMID 22272272; details: hexachlorofluorescein labeled ssRNA titrated with N-NTD; read-out: KD of RNA binding to N-NTD; cited from earlier work
SARS-CoV-2 [5] = tested on: SARS-CoV-2; parameters: method as in PMID 33441348; details: cited from earlier work
[6] = Vero E6, MOI 0.01, treatment 1 hpi

Compound: COc1ccc2cc([C@H](C)C(=O)O)ccc2c1 [Naproxen, naproxen]
- Oligomer Size (hydrodynamic diameter Dh of DNA-NTD complex) [1]: 7.9 ± 0.3 nm
- IC50 (SARS-CoV-2 [2]; Severe acute respiratory syndrome coronavirus 2, Vero C1008, Vero E6, MOI 0.01, unique treatment at 1 hpi, 48 hpi): 46.1 µM
- IC50 (SARS-CoV-2 [2]; Severe acute respiratory syndrome coronavirus 2, Vero C1008, Vero E6, MOI 0.01, unique treatment at 1 hpi, 72 hpi): 59.5 µM
- IC50 (SARS-CoV-2 [2]; Severe acute respiratory syndrome coronavirus 2, Vero C1008, read-out: Mean IC50 (viral replication), Vero E6, MOI 0.01, treatment 1 hpi): 50 ± 10 µM
- IC50 (SARS-CoV-2 [2]; read-out: Mean IC50 (viral replication), Vero E6, MOI 0.01, treatment 1 hpi): 52 ± 6 µM
- antiviral effect versus mock-treated control (SARS-CoV-2 in nasal HAE): did not show an antiviral effect
- COX Inhibition (COX): COX1 + COX2
- IC50 (Influenza A virus; MOI = 10^−2): 25 ± 7 µM
- IC50 (viral 3C-like protease): 3.45 µM

Compound: COc1ccc2cc(-c3c(C(=O)O)cccc3C(=O)O)ccc2c1 [Naproxen C0]
- Kd [3]: 1.6 µM
- Oligomer Size (hydrodynamic diameter Dh of DNA-NTD complex) [1]: 12.7 ± 0.7 nm
- IC50 (SARS-CoV-2 [2]; Severe acute respiratory syndrome coronavirus 2, Vero C1008, Vero E6, MOI 0.01, treatment 1 hpi, read-out: Mean IC50 (viral replication)): 75 ± 25 µM
- IC50 (SARS-CoV-2 [2]; Severe acute respiratory syndrome coronavirus 2, Vero C1008, Vero E6, MOI 0.01, unique treatment at 1 hpi, 48 hpi, read-out: IC50): 101 µM
- IC50 (SARS-CoV-2 [2]; Severe acute respiratory syndrome coronavirus 2, Vero C1008, Vero E6, MOI 0.01, unique treatment at 1 hpi, 72 hpi, read-out: IC50): 45.1 µM
- IC50 (SARS-CoV-2 [2]; Vero E6, MOI 0.01, treatment 1 hpi, read-out: Mean IC50 (viral replication)): 73 ± 25 µM
- ability to inhibit COX (COX): lacked the ability to inhibit COX
- CC50 (in vitro): > 1000 µM
- CC50 at 48 h post infection (in vitro): > 1000 µM
- CC50 at 72 h post infection (in vitro): > 1000 µM

Compound: Cc1ccc(-c2cc(C(F)(F)F)nn2-c2ccc(S(N)(=O)=O)cc2)cc1 [Celecoxib]
- Oligomer Inhibition/Enhancement ([1]; listed as celecoxib): enhanced the formation of large species
- Oligomer Size, large particles formed ([1]; compound in DMSO, compared to N + DMSO (12 nm)): ^7 Formation of large particles of 3 µm as compared to N + DMSO (12 nm)
- Mean IC50 (viral replication) (SARS-CoV-2 [2]; [6]): proviral
- effect on viral replication (SARS-CoV-2 [2]): No inhibition of viral replication; also recorded: did not present a clear antiviral effect
- COX Inhibition (COX): COX2
- CC50 [4]: 80 µM
- CC50 at 48 h post infection [4]: 83 µM

Compound: CC(=O)Nc1ccc(O)cc1 [Acetaminophen (paracetamol), Acetaminophen]
- Oligomer Inhibition/Enhancement [1]: did not modify NTD oligomerization
- Oligomer Size (hydrodynamic diameter Dh of DNA-NTD complex) [1]: 14.0 ± 1.0 nm
- Mean IC50 (viral replication) (SARS-CoV-2 [2]; [6]): No inhibition
- effect on viral replication (SARS-CoV-2 [2]): No inhibition of viral replication; also recorded: mainly not affecting viral replication
- COX Inhibition (COX): COX1 + COX2 ? ^1
- CC50 [4]: > 400 µM
- CC50 at 48 h post infection [4]: > 400 µM
- CC50 at 72 h post infection [4]: > 400 µM

Compound: 10-mer RNA: fluorescently labeled RNA UCUCUAAACG labeled with 5′-hexachlorofluorescein
- Kd (wild type N-NTD): 8.3 ± 0.8 µM

Compound: Cc1cnc(NC(=O)C2=C(O)c3ccccc3S(=O)(=O)N2C)s1 [meloxicam]
- effect on SARS-CoV-2 entry or replication in vitro (SARS-CoV-2 [5]): did not affect SARS-CoV-2 entry or replication in vitro

Compound: COc1ccc2cc(C(CCC(=O)O)C(=O)O)ccc2c1 (stereo not drawn) [Naproxen A]
- Oligomer Size (hydrodynamic diameter Dh of DNA-NTD complex) [1]: 16.0 ± 0.8 nm
- Mean IC50 (viral replication) (SARS-CoV-2 [2]; [6]): No inhibition
- effect on viral replication (SARS-CoV-2 [2]): did not reduce viral replication
- ability to inhibit COX (COX): lacked the ability to inhibit COX
- antiviral effect against Influenza A virus (Influenza A virus): no antiviral effect
- CC50 (in vitro): > 1000 µM
- CC50 at 48 h post infection (in vitro): > 1000 µM
- CC50 at 72 h post infection (in vitro): > 1000 µM

Compound: CC(C)Cc1ccc(C(C)C(=O)O)cc1 (stereo not drawn) [ibuprofen]
- effect on SARS-CoV-2 entry or replication in vitro (SARS-CoV-2 [5]): did not affect SARS-CoV-2 entry or replication in vitro

Source: PMC8124269 (Molecules, 2021)
